Experimental data taken from ChEMBL document CHEMBL1201862, “PubChem BioAssay data set” (2004).
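Dose response: 5 concentrations. Exposure: 48 h. Format: 96-well plates. Endpoint: linear interpolation; highest concentration if not reached. GI50 = concentration required for 50% inhibition of growth.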 Active and inactive are the calls of the source. Cut-off read from the data, not from the text of the source: active = GI50 up to about 1.1 µM and inactive = higher.

What was measured:
Assay in all cases: growth of human tumour cells (NCI), 48 h
HOP-92 = test system: HOP-92
SF-268 = test system: SF-268
MCF7 = test system: MCF7
SF-295 = test system: SF-295
SNB-19 = test system: SNB-19
SK-MEL-28 = test system: SK-MEL-28
Hs-578T = test system: Hs-578T
OVCAR-5 = test system: OVCAR-5
786-0 = test system: 786-0
K562 = test system: K562
U-251 = test system: U-251
SK-MEL-5 = test system: SK-MEL-5
EKVX = test system: EKVX
MDA-MB-231 = test system: MDA-MB-231
PC-3 = test system: PC-3
NCI-H23 = test system: NCI-H23
HCT-116 = test system: HCT-116
BT-549 = test system: BT-549
SN12C = test system: SN12C

Measured: GI50

C=C(C)[C@@]1(O[Si](C)(C)C)CCCC[C@@H]1CC(Sc1ccccc1)Sc1ccccc1
inactive: HOP-92 12.7 µM | SF-268 14.8 µM | MCF7 12 µM | SF-295 12.4 µM | SNB-19 16.4 µM | SK-MEL-28 18.3 µM | Hs-578T 13.4 µM | OVCAR-5 16.2 µM | 786-0 14.6 µM | K562 12.7 µM | U-251 16 µM | SK-MEL-5 16.3 µM | EKVX 17.6 µM | MDA-MB-231 16.8 µM | PC-3 13.2 µM | NCI-H23 13.4 µM

c1cc(-c2ccc(-c3nc4ccc(C5=NCCN5)cc4s3)s2)ccc1C1=NCCN1
inactive: SK-MEL-28 1.71 µM | BT-549 1.23 µM | EKVX 1.28 µM
active: HOP-92 0.299 µM | SF-268 0.214 µM | MCF7 0.0372 µM | SF-295 0.301 µM | HCT-116 0.351 µM | SNB-19 0.618 µM | OVCAR-5 0.444 µM | 786-0 0.156 µM | K562 0.82 µM | U-251 0.222 µM | SK-MEL-5 0.955 µM | MDA-MB-231 0.234 µM | SN12C 0.172 µM | PC-3 0.805 µM | NCI-H23 0.813 µM

CC/C(=C\c1ccc(Cl)c(Cl)c1)[N+](=O)[O-]
inactive: SF-268 2.03 µM | MCF7 1.15 µM | SF-295 2.04 µM | HCT-116 3.66 µM | SNB-19 2.36 µM | SK-MEL-28 2.06 µM | Hs-578T 3.48 µM | OVCAR-5 2.06 µM | 786-0 1.59 µM | K562 2.13 µM | U-251 1.86 µM | SK-MEL-5 1.97 µM | EKVX 2.76 µM | MDA-MB-231 2.53 µM | SN12C 2.09 µM | PC-3 2.23 µM | NCI-H23 2.34 µM

COc1ccc(-c2cc(=O)c3c(O)c(O)c(OC)cc3o2)cc1O
inactive: HOP-92 > 100 µM | SF-268 84.5 µM | SF-295 > 100 µM | HCT-116 > 100 µM | SNB-19 > 100 µM | SK-MEL-28 > 100 µM | OVCAR-5 > 100 µM | 786-0 > 100 µM | K562 > 100 µM | U-251 > 100 µM | SK-MEL-5 > 100 µM | EKVX > 100 µM | SN12C > 100 µM | NCI-H23 > 100 µM

Cc1nc2c(n1Cc1ccc(Cl)cc1)C(=O)c1ccccc1C2=O
inactive: SF-268 5.09 µM | SF-295 11 µM | HCT-116 2.6 µM | SNB-19 > 75 µM | SK-MEL-28 > 75 µM | 786-0 5.68 µM | K562 2.06 µM | U-251 3.48 µM | SK-MEL-5 16.4 µM | EKVX > 75 µM | SN12C > 75 µM | NCI-H23 > 75 µM

CN1N=C(c2ccccc2)c2cc(Cl)ccc2N=C1N/N=C/c1ccc(N(C)C)cc1
inactive: SF-268 > 100 µM | MCF7 > 100 µM | SF-295 > 100 µM | HCT-116 > 100 µM | SNB-19 > 100 µM | SK-MEL-28 > 100 µM | BT-549 > 100 µM | 786-0 > 100 µM | K562 64.3 µM | U-251 > 100 µM | SK-MEL-5 > 100 µM | EKVX > 100 µM | MDA-MB-231 97.7 µM | SN12C > 100 µM | PC-3 58.5 µM | NCI-H23 > 100 µM

CN(C)CCN1C(=O)N(CCN(C)C)c2c3cc(O)ccc3nc3c([N+](=O)[O-])ccc1c23
inactive: HOP-92 15.3 µM | SF-268 8.47 µM | HCT-116 5.58 µM | SNB-19 6.05 µM | SK-MEL-28 25.3 µM | Hs-578T 16.9 µM | BT-549 19.8 µM | 786-0 6.62 µM | K562 4.57 µM | U-251 9.93 µM | SK-MEL-5 13.7 µM | MDA-MB-231 10.5 µM | SN12C 9.2 µM | PC-3 8.63 µM | NCI-H23 17.2 µM

CC1C2Cc3ccc(O)cc3C1(C)CCN2C (stereo unspecified)
inactive: SF-268 > 100 µM | MCF7 > 100 µM | SF-295 > 100 µM | HCT-116 > 100 µM | SNB-19 > 100 µM | SK-MEL-28 > 100 µM | Hs-578T > 100 µM | OVCAR-5 > 100 µM | 786-0 > 100 µM | K562 > 100 µM | U-251 > 100 µM | SK-MEL-5 > 100 µM | EKVX > 100 µM | MDA-MB-231 > 100 µM | SN12C > 100 µM | PC-3 > 100 µM | NCI-H23 > 100 µM

COc1cc(/C=C2\N=C(c3ccccc3)N(c3cc4cc(Sc5ccccc5)ccc4[nH]3)C2=O)cc(OC)c1OC
inactive: HOP-92 6.92 µM | SF-268 2.16 µM | MCF7 11.5 µM | SF-295 20.7 µM | HCT-116 11.7 µM | SNB-19 23.2 µM | SK-MEL-28 12.9 µM | Hs-578T 2.72 µM | OVCAR-5 25.9 µM | BT-549 9.42 µM | 786-0 12.6 µM | K562 4.25 µM | SK-MEL-5 10.6 µM | EKVX 17.5 µM | SN12C 15.2 µM | NCI-H23 25.5 µM
